Columns and labels:
PDX1206 [1] = experiment: GRmax, 72 h; higher = less effect;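 further: breast cell lines in 384-well plates, nine doses across a 10^4 range, Dye Drop imaging of viable cells vs DMSO and time-zero plates, GR 0 means no net growth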
HS578T = experiment: GRmax, 72 h; higher = less effect;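 further: breast cell lines in 384-well plates, nine doses across a 10^4 range, Dye Drop imaging of viable cells vs DMSO and time-zero plates, GR 0 means no net growth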
HCC1937 = experiment: GRmax, 72 h; higher = less effect;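 further: breast cell lines in 384-well plates, nine doses across a 10^4 range, Dye Drop imaging of viable cells vs DMSO and time-zero plates, GR 0 means no net growth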
EFM19 = experiment: GRmax, 72 h; higher = less effect;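 further: breast cell lines in 384-well plates, nine doses across a 10^4 range, Dye Drop imaging of viable cells vs DMSO and time-zero plates, GR 0 means no net growth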
SUM149 = experiment: GRmax, 72 h; higher = less effect
PDXHCI002 = experiment: GRmax, 72 h; higher = less effect
AU565 = experiment: GRmax, 72 h; higher = less effect
PDX1206 [2] = experiment: area over the GR curve, 72 h; higher = more effect;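 further: Dye Drop or Deep Dye Drop imaging of viable cells in 384-well plates (Hoechst nuclei, LIVE/DEAD dye), nine half-log doses, GR normalized to DMSO controls and time-zero plates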
MCF10A (GM) = experiment: area over the GR curve, 72 h; higher = more effect;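 further: Dye Drop or Deep Dye Drop imaging of viable cells in 384-well plates (Hoechst nuclei, LIVE/DEAD dye), nine half-log doses, GR normalized to DMSO controls and time-zero plates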

CCCCOc1c(C(=O)c2c(F)cc(C)cc2F)c[nH]c2nncc1-2 (max 10 µM)
GRmax, 72 h (PDX1206 [1]): 0.123 GR | GRmax, 72 h (HS578T): -0.0288 GR | GRmax, 72 h (HCC1937): -0.0492 GR | GRmax, 72 h (EFM19): 0.188 GR | GRmax, 72 h (SUM149): 0.0975 GR | GRmax, 72 h (PDXHCI002): 0.217 GR | GRmax, 72 h (AU565): -0.158 GR | area over the GR curve (PDX1206 [2]): 0.691 GR | area over the GR curve (MCF10A (GM)): 0.423 GR

CNc1nc(-c2ccc3c(N)n[nH]c3c2)cc(N2C[C@@H](C(=O)NC3CCCCC3)CC[C@H]2C)n1 (max 10 µM)
GRmax, 72 h (PDX1206 [1]): 0.295 GR | GRmax, 72 h (HS578T): 0.538 GR | GRmax, 72 h (HCC1937): 0.585 GR | GRmax, 72 h (EFM19): 0.292 GR | GRmax, 72 h (SUM149): 0.698 GR | GRmax, 72 h (PDXHCI002): 0.867 GR | GRmax, 72 h (AU565): 0.391 GR | area over the GR curve (PDX1206 [2]): 0.327 GR | area over the GR curve (MCF10A (GM)): 0.0279 GR

CO[C@@H](C)Cn1c(=O)n(C)c2cnc3ccc(-c4cncc(C(C)(C)O)c4)cc3c21 (max 10 µM)
GRmax, 72 h (PDX1206 [1]): -0.404 GR | GRmax, 72 h (HS578T): 0.0776 GR | GRmax, 72 h (HCC1937): 0.0369 GR | GRmax, 72 h (EFM19): -0.255 GR | GRmax, 72 h (SUM149): -0.0342 GR | GRmax, 72 h (PDXHCI002): -0.0949 GR | GRmax, 72 h (AU565): -0.533 GR | area over the GR curve (PDX1206 [2]): 0.804 GR | area over the GR curve (MCF10A (GM)): 0.67 GR

C=CCn1c(=O)c2cnc(Nc3ccc(N4CCN(C)CC4)cc3)nc2n1-c1cccc(C(C)(C)O)n1 [AZD1775] (max 10 µM)
GRmax, 72 h (PDX1206 [1]): -0.308 GR | GRmax, 72 h (HS578T): -0.394 GR | GRmax, 72 h (HCC1937): -0.0795 GR | GRmax, 72 h (EFM19): -0.425 GR | GRmax, 72 h (SUM149): -0.497 GR | GRmax, 72 h (PDXHCI002): -0.347 GR | GRmax, 72 h (AU565): -0.485 GR | area over the GR curve (PDX1206 [2]): 0.455 GR | area over the GR curve (MCF10A (GM)): 0.136 GR

CNC(=O)c1cccc(-c2ccc3c(N4CCOC[C@@H]4C)nc(N4CCOC[C@@H]4C)nc3n2)c1 [AZD2014] (max 10 µM)
GRmax, 72 h (PDX1206 [1]): 0.14 GR | GRmax, 72 h (HS578T): 0.273 GR | GRmax, 72 h (HCC1937): 0.366 GR | GRmax, 72 h (EFM19): -0.0465 GR | GRmax, 72 h (SUM149): 0.418 GR | GRmax, 72 h (PDXHCI002): 0.489 GR | GRmax, 72 h (AU565): -0.0212 GR | area over the GR curve (PDX1206 [2]): 0.697 GR | area over the GR curve (MCF10A (GM)): 0.533 GR

NC1(C(=O)N[C@@H](CCO)c2ccc(Cl)cc2)CCN(c2nc[nH]c3nccc2-3)CC1 [AZD5363] (max 10 µM)
GRmax, 72 h (PDX1206 [1]): 0.397 GR | GRmax, 72 h (HS578T): 0.349 GR | GRmax, 72 h (HCC1937): 0.504 GR | GRmax, 72 h (EFM19): 0.23 GR | GRmax, 72 h (SUM149): 0.34 GR | GRmax, 72 h (PDXHCI002): 1.08 GR | GRmax, 72 h (AU565): 0.373 GR | area over the GR curve (PDX1206 [2]): 0.4 GR | area over the GR curve (MCF10A (GM)): 0.214 GR

C[C@@H]1COCCN1c1cc(C2([S@](C)(=N)=O)CC2)nc(-c2cc[nH]c3nccc2-3)n1 [AZD6738] (max 10 µM)
GRmax, 72 h (PDX1206 [1]): 0.141 GR | GRmax, 72 h (HS578T): 0.0076 GR | GRmax, 72 h (HCC1937): 0.298 GR | GRmax, 72 h (EFM19): 0.845 GR | GRmax, 72 h (SUM149): -0.297 GR | GRmax, 72 h (PDXHCI002): 0.734 GR | GRmax, 72 h (AU565): 0.312 GR | area over the GR curve (PDX1206 [2]): 0.0536 GR | area over the GR curve (MCF10A (GM)): 0.073 GR

CN(C)C/C=C/C(=O)Nc1ccc(O[C@@H]2CCC[C@@H](Nc3ncc(Cl)c(-c4c[nH]c5ccccc45)n3)C2)cc1 [BSJ-01-175] (max 10 µM)
GRmax, 72 h (PDX1206 [1]): -0.936 GR | GRmax, 72 h (HS578T): -0.694 GR | GRmax, 72 h (HCC1937): -0.603 GR | GRmax, 72 h (EFM19): -0.322 GR | GRmax, 72 h (SUM149): -0.617 GR | GRmax, 72 h (PDXHCI002): -0.297 GR | GRmax, 72 h (AU565): -0.777 GR | area over the GR curve (PDX1206 [2]): 0.9 GR | area over the GR curve (MCF10A (GM)): 0.326 GR

CC(=O)c1c(C)c2cnc(Nc3ccc(N4CCN(CCOCCOCCOCCNC(=O)COc5cccc6c5C(=O)N(C5CCC(=O)NC5=O)C6=O)CC4)cn3)nc2n(C2CCCC2)c1=O (centres undefined) [BSJ-03-123] (max 10 µM)
GRmax, 72 h (PDX1206 [1]): -0.138 GR | GRmax, 72 h (HS578T): -0.263 GR | GRmax, 72 h (HCC1937): 0.493 GR | GRmax, 72 h (EFM19): 0.156 GR | GRmax, 72 h (SUM149): -0.0089 GR | GRmax, 72 h (PDXHCI002): -0.0835 GR | GRmax, 72 h (AU565): -0.386 GR | area over the GR curve (PDX1206 [2]): 0.163 GR | area over the GR curve (MCF10A (GM)): 0.25 GR

CC(C)Nc1cc(-c2c[nH]c(C(=O)N[C@H](CO)c3cccc(Cl)c3)c2)c(Cl)cn1 [BVD523] (max 10 µM)
GRmax, 72 h (PDX1206 [1]): 0.564 GR | GRmax, 72 h (HS578T): 0.259 GR | GRmax, 72 h (HCC1937): 0.534 GR | GRmax, 72 h (EFM19): 0.798 GR | GRmax, 72 h (SUM149): 0.204 GR | GRmax, 72 h (PDXHCI002): 0.286 GR | GRmax, 72 h (AU565): 0.521 GR | area over the GR curve (PDX1206 [2]): 0.0779 GR | area over the GR curve (MCF10A (GM)): 0.266 GR

CCC(=O)Nc1ccc(C(=O)Nc2ccc(Nc3ncc4c(n3)N(C)c3ccc(C)cc3C(=O)N4C)cc2)cc1 [FMF-03-145-1]
GRmax, 72 h (PDX1206 [1]): 0.128 GR | GRmax, 72 h (HS578T): -0.183 GR | GRmax, 72 h (HCC1937): -0.0558 GR | GRmax, 72 h (EFM19): 0.175 GR | GRmax, 72 h (SUM149): -0.101 GR | GRmax, 72 h (PDXHCI002): -0.102 GR | GRmax, 72 h (AU565): -0.153 GR | area over the GR curve (PDX1206 [2]): 0.946 GR | area over the GR curve (MCF10A (GM)): 0.376 GR

COc1cc(N2CCN(C)CC2)ccc1Nc1ncc2c(n1)N(C)c1ccccc1C(=O)N2CC(F)(F)F [FMF-03-146-1]
GRmax, 72 h (PDX1206 [1]): 0.966 GR | GRmax, 72 h (HS578T): 0.944 GR | GRmax, 72 h (HCC1937): 0.846 GR | GRmax, 72 h (EFM19): 0.947 GR | GRmax, 72 h (SUM149): 0.971 GR | GRmax, 72 h (PDXHCI002): 1.02 GR | GRmax, 72 h (AU565): 0.63 GR | area over the GR curve (PDX1206 [2]): -0.0165 GR | area over the GR curve (MCF10A (GM)): 0.001 GR

CN1CC[C@H](c2c(O)cc(O)c3c(=O)cc(-c4ccccc4Cl)oc23)[C@H](O)C1 [Flavopiridol] (max 1 µM)
GRmax, 72 h (PDX1206 [1]): -0.566 GR | GRmax, 72 h (HS578T): -0.256 GR | GRmax, 72 h (HCC1937): -0.215 GR | GRmax, 72 h (EFM19): -0.21 GR | GRmax, 72 h (SUM149): -0.605 GR | GRmax, 72 h (PDXHCI002): -0.143 GR | GRmax, 72 h (AU565): -0.69 GR | area over the GR curve (PDX1206 [2]): 0.458 GR | area over the GR curve (MCF10A (GM)): 0.316 GR

CN(C)C(=O)c1cc2cnc(Nc3ccc(N4CCNCC4)cn3)nc2n1C1CCCC1 [LEE011/Ribociclib] (max 10 µM)
GRmax, 72 h (PDX1206 [1]): 0.713 GR | GRmax, 72 h (HS578T): 0.376 GR | GRmax, 72 h (HCC1937): 1.03 GR | GRmax, 72 h (EFM19): 0.386 GR | GRmax, 72 h (SUM149): 0.605 GR | GRmax, 72 h (PDXHCI002): 0.508 GR | GRmax, 72 h (AU565): 0.244 GR | area over the GR curve (PDX1206 [2]): 0.166 GR | area over the GR curve (MCF10A (GM)): 0.166 GR

O=C1NC(=NCc2cccs2)SC1=Cc1ccc2ncccc2c1 [R0-3306] (max 10 µM)
GRmax, 72 h (PDX1206 [1]): 0.0387 GR | GRmax, 72 h (HS578T): -0.0503 GR | GRmax, 72 h (HCC1937): -0.117 GR | GRmax, 72 h (EFM19): 0.0987 GR | GRmax, 72 h (SUM149): -0.171 GR | GRmax, 72 h (PDXHCI002): 0.0529 GR | GRmax, 72 h (AU565): -0.185 GR | area over the GR curve (PDX1206 [2]): 0.197 GR | area over the GR curve (MCF10A (GM)): 0.0788 GR

CNCc1ccc(-c2[nH]c3cc(F)cc4c3c2CCNC4=O)cc1 [Rucaparib] (max 10 µM)
GRmax, 72 h (PDX1206 [1]): 0.586 GR | GRmax, 72 h (HS578T): 0.683 GR | GRmax, 72 h (HCC1937): 0.815 GR | GRmax, 72 h (EFM19): 0.96 GR | GRmax, 72 h (SUM149): 0.559 GR | GRmax, 72 h (PDXHCI002): 0.516 GR | GRmax, 72 h (AU565): 0.718 GR | area over the GR curve (PDX1206 [2]): 0.114 GR | area over the GR curve (MCF10A (GM)): 0.0455 GR
